According to ChEMBL document CHEMBL2439971, “Design, synthesis and antiproliferative evaluation of fluorenone analogs with DNA topoisomerase I inhibitory properties” (Bioorg Med Chem, 2013):
Calls of active or inactive are those of the source. The calls are words filed in the database; no cut-off is given here.

Experiments:
PC-3 = experiment: Cytotoxicity against human PC3 cells after 48 hrs by sulforhodamine B assay; assay type: functional, cell-based; conditions: PC-3, 48 h
Homo sapiens = species: Homo sapiens; experiment: Inhibition of telomerase (unknown origin) at 10 uM TRAP assay

Structure (SMILES) | IC50 (PC-3) | inhibition (Homo sapiens)
CC(C)SCC(=O)Nc1ccc2c(c1)C(=O)c1cc(NC(=O)CSC(C)C)ccc1-2 | > 30 µM | inactive
O=C(CN1CCOCC1)Nc1ccc2c(c1)C(=O)c1cc(NC(=O)CN3CCOCC3)ccc1-2 | > 30 µM | inactive
O=C(CCCl)Nc1ccc2c(c1)C(=O)c1cc(NC(=O)CCCl)ccc1-2 | > 30 µM | inactive
O=C(CN1CCCCC1)Nc1ccc2c(c1)C(=O)c1cc(NC(=O)CN3CCCCC3)ccc1-2 | > 30 µM | inactive
O=C(CNCCO)Nc1ccc2c(c1)C(=O)c1cc(NC(=O)CNCCO)ccc1-2 | > 30 µM | inactive
Nc1ccc2c(c1)C(=O)c1cc(N)ccc1-2 | > 30 µM | inactive
CC(C)CNCC(=O)Nc1ccc2c(c1)C(=O)c1cc(NC(=O)CNCC(C)C)ccc1-2 | > 30 µM | inactive
O=C(CCNCCO)Nc1ccc2c(c1)C(=O)c1cc(NC(=O)CCNCCO)ccc1-2 | 19.2 µM | inactive
O=C1c2cc([N+](=O)[O-])ccc2-c2ccc([N+](=O)[O-])cc21 | > 30 µM | inactive
O=C(CCN1CCCC1)Nc1ccc2c(c1)C(=O)c1cc(NC(=O)CCN3CCCC3)ccc1-2 | 6.06 µM | inactive
O=C(CCl)Nc1ccc2c(c1)C(=O)c1cc(NC(=O)CCl)ccc1-2 | 0.55 µM | inactive
CC(C)NCC(=O)Nc1ccc2c(c1)C(=O)c1cc(NC(=O)CNC(C)C)ccc1-2 | 6.19 µM | inactive
CCCSCCC(=O)Nc1ccc2c(c1)C(=O)c1cc(NC(=O)CCSCCC)ccc1-2 | > 30 µM | inactive
CCCCNCCC(=O)Nc1ccc2c(c1)C(=O)c1cc(NC(=O)CCNCCCC)ccc1-2 | 26.9 µM | inactive
CC(C)NCCC(=O)Nc1ccc2c(c1)C(=O)c1cc(NC(=O)CCNC(C)C)ccc1-2 | 10 µM | inactive
CCSCC(=O)Nc1ccc2c(c1)C(=O)c1cc(NC(=O)CSCC)ccc1-2 | > 30 µM | inactive
O=C(CCN1CCCCC1)Nc1ccc2c(c1)C(=O)c1cc(NC(=O)CCN3CCCCC3)ccc1-2 | 6.26 µM | inactive
CCCNCCC(=O)Nc1ccc2c(c1)C(=O)c1cc(NC(=O)CCNCCC)ccc1-2 | 20.8 µM | inactive
CC(C)SCCC(=O)Nc1ccc2c(c1)C(=O)c1cc(NC(=O)CCSC(C)C)ccc1-2 | > 30 µM | inactive
O=C(CSCCO)Nc1ccc2c(c1)C(=O)c1cc(NC(=O)CSCCO)ccc1-2 | > 30 µM | inactive
